Experimental data from patent US20210290732A1, “GLP-1R and GCGR Agonists, Formulations, and Methods of Use” (Spitfire Pharma LLC, priority 2020, published 2021).
Where “and” joins values, the source holds several entries; their conditions need not be identical. Equal entries are not always repeated. Where two headings read alike, the source gives them in different places. Blank lines part the entries; values can stand above or below the compound they belong to.

Columns and labels:
[1] = system: DIO-NASH mice; assay: DIO-NASH mouse study, 12 weeks of QD dosing; assay type: in vivo
Protocol: All mice entering the experiment have been pre-biopsied, stratified based on liver biopsy (only animals with fibrosis 1 or above and steatosis 2 or above are included) animals stratified into groups based on Col1a1 immunostaining. […] Body weight (BW) was measured daily for the entire study period, food intake daily for the first 14 days then weekly until study end. Terminal plasma was measured for ALT/AST/TG/TC levels. Terminal liver removal and sampling was carried out for pre to post NAFLD Activity Score (NAS; HE staining) including Fibrosis Stage (Picrosirius red, PSR). Terminal histology was carried out for steatosis, Col1a1 and galectin-3 quantitation. Terminal liver workup included TG+TC (extraction and measurement). Terminal liver biopsies were set up in: 1) 4% PFA for histology, 2) fresh frozen liver for biochemistry, 3) fresh frozen liver for RNA extraction and RNAseq.

[2] = pharmacokinetics in Gottingen minipigs (cassette sc dosing, 20 nmol/kg); assay type: in vivo, Gottingen minipig; details: 20 nmol/kg sc
Excerpt: This study uses a cassette style dosing, to minimize large animal usage, but with injection subcutaneously at separate sites to preclude each compound's influencing uptake of another compound. A total of two male Gottingen minipigs were assigned to study. The animals were pair housed in pens on raised floor caging. The animals weighed between approximately 11-15 kg at transfer and approximately 5-8 months of age. The same animals were to be used for multiple phases, following a minimum 1-week washout period. To facilitate dosing and to ensure animal safety during the dosing procedure, animals were sedated with Telazol (IM, 4-6 mg/kg) prior to dosing. Dosing was subcutaneous via bolus injection between the skin and underlying layers of tissue in the ventral region of the animal. A total of […] sites were used for each phase with different compounds dosed at each of the 4 sites. Compounds are formulated in saline containing 0.2% BSA […] at pH 3.5. Each stock solution was diluted with normal saline (pH 7.4) to the required final conc and sterile filtered. Dosing is at 20 nmol/kg. Blood samples were collected pre-dose and at 2, 4, 6, 8, 12, 24, 36, 48, 72 and 96-hours post-dose. At each blood collection time point a 1 mL sample is taken from the jugular vein into K2EDTA tubes on ice before processing to plasma by centrifugation. The plasma samples containing the 4 test compounds were sent to Climax Labs for separation and quantitation by LC-MS/MS as noted below (2.5.3).
Analysis was carried out at Climax Laboratories (San Jose, Calif.) on an API-4000 Mass Spectrometer, ESI positive, MRM scan. Samples were loaded on a Shimadzu HPLC/CTC Autosampler with an ACE C4 column (2.1×50 mm, 5 μm). Elution was by gradient from aqueous 0.5% formic acid, 5 mM NH4OAc to 0.5% formic acid in CH3CN/H2O (9:1). […] After transfer to a 96 well plate, a 40 μL sample was injected and the individual compound peaks were quantitated with standard curves. […] The quantitation limit is 1-2 ng/mL, depending on analog structure.

[3] = target: T1, human GLP-1R (Homo sapiens, UniProt P43220); assay: cAMP receptor activation assay, human GLP-1R cloned into CHO cells (DiscoverX LeadHunter / cAMP Hunter); assay type: cell-based; details: for Selectivity Ratio GLP-1R vs GCGR: SR = GCGR EC50/GLP-1 EC50, 0.1% BSA
T1 construct: host or cells: CHO-K1

[4] = target: GCGR (Homo sapiens, UniProt P47871); assay: cAMP receptor activation assay, human GCGR cloned into CHO cells (DiscoverX LeadHunter / cAMP Hunter); assay type: cell-based; design: host or cells: CHO-K1
[5] = CMC of Polysorbate 80 in F58 buffer pH 7.7 with added ALT-801 by surface tensiometry; assay type: physicochemical
Excerpt: CMC shifts are simply calculated as CMC in the presence of the ALT-801 less the CMC for the surfactant alone in solution.

[6] = cAMP, CHO cells, 0.1% BSA containing buffers, read-out: pEC50 (SE) hu GLP-1 (converted)
[7] = cAMP, CHO cells, 0.1% BSA containing buffers, read-out: pEC50 (SE) huGCGR (converted)
[8] = ratio of EC50 in 0.1% BSA and 0.1% ovalbumin

T1 sequence (P43220 24-463): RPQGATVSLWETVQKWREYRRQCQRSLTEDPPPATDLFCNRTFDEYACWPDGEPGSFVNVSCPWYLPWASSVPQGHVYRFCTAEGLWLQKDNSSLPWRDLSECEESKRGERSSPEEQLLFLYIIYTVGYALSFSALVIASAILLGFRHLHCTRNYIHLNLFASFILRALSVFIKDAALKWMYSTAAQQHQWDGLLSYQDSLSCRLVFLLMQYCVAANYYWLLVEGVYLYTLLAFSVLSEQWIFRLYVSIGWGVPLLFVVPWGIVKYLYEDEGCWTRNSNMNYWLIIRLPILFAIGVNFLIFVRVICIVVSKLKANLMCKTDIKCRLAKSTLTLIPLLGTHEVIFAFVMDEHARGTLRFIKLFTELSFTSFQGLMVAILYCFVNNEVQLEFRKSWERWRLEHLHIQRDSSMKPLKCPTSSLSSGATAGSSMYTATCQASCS
Chain of GCGR (P47871 26-477): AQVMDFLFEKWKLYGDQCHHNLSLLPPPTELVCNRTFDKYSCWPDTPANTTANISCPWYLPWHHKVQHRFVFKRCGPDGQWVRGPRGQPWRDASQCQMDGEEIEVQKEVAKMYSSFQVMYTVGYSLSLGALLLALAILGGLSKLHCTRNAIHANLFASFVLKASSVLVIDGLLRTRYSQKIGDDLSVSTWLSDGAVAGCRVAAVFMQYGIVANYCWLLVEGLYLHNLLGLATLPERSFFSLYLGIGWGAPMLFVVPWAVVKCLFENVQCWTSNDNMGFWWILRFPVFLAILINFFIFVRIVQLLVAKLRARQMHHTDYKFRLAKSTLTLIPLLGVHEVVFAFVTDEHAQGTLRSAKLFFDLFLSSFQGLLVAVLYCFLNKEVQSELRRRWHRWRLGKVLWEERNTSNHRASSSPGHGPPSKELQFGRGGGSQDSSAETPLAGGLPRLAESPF

Compound: CSc1ccc(C(=O)/C=C/c2cc(C)c(OC(C)(C)C(=O)O)c(C)c2)cc1 [elafibranor]
body weight compared to NASH control (p≤0.001) ([1]; ALT-801 5 and 10 nmol/kg, elafibranor 78 μmol/kg, semaglutide 10 nmol/kg): statistically significantly decreased body weight
NAFLD activity score (NAS) reduction compared to the start of treatment ([1]; NASH mice, 78 μmol/kg PO QD, 12 weeks): 42%
expression of cell death genes vs NASH vehicle control ([1]; NASH mice, liver RNAseq): No statistical differences
expression of genes affecting fat usage and transport vs NASH vehicle control ([1]; NASH mice, liver RNAseq): significantly lower GPAT2 (p<0.001) and GPAT4 (p<0.001)
expression of liver inflammation genes (FOSB, JUN, TLR4) vs NASH vehicle control ([1]; NASH mice, liver RNAseq): No statistically significant changes
number of differentially expressed genes (liver RNA sequencing) ([1]; NASH mice, high dose ALT-801, elafibranor, semaglutide): ~5800

Compound: Polysorbate 80
CMC Shift Due to ALT-801 ([5]; 5.0 mg/ml ALT-801): 5.16 mg/mL
Extent of Interaction mg PS80/mg ALT-801 ([5]; 5.0 mg/ml ALT-801): 1.03 mg/mg
Extent of Interaction moles PS80/molesALT-801 ([5]; 5.0 mg/ml ALT-801): 3.05 mole/mole
CMC Shift Due to ALT-801 ([5]; 10.0 mg/ml ALT-801): 10.32 mg/mL
Extent of Interaction mg PS80/mg ALT-801 ([5]; 10.0 mg/ml ALT-801): 1.03 mg/mg
Extent of Interaction moles PS80/molesALT-801 ([5]; 10.0 mg/ml ALT-801): 3.05 mole/mole
Polysorbate 80 CMC Value 5.0 mg/ml ALT-801, Average ([5]; F58 buffer pH 7.7, 5.0 mg/ml ALT-801): 5.34 mg/mL
Polysorbate 80 CMC Value 5.0 mg/ml ALT-801 ([5]; F58 buffer pH 7.7, 5.0 mg/ml ALT-801, single test): 5.35 mg/mL and 5.33 mg/mL
Polysorbate 80 CMC Value 10.0 mg/ml ALT-801, Average ([5]; F58 buffer pH 7.7, 10.0 mg/ml ALT-801): 10.50 mg/mL
Polysorbate 80 CMC Value 10.0 mg/ml ALT-801 ([5]; F58 buffer pH 7.7, 10.0 mg/ml ALT-801, single test): 10.49 mg/mL and 10.50 mg/mL
Polysorbate 80 CMC Valve No ALT-801, Average ([5]; F58 buffer pH 7.7, no ALT-801): 0.183 mg/mL
Polysorbate 80 CMC Valve No ALT-801 ([5]; F58 buffer pH 7.7, no ALT-801, single test): 0.182 mg/mL and 0.183 mg/mL
Extent of Interaction mg PS80/mg ALT-801 ([5]; […] ALT-801): 1.03 mg/mg
Extent of Interaction moles PS80/molesALT-801 ([5]; […] ALT-801): 3.05 mole/mole

Compound: CCCCCCCCCCCCCCCCO[C@@H]1O[C@H](CO[C@H]2O[C@H](C(=O)NCCCC[C@@H]3NC(=O)[C@@H](NC(=O)[C@H](CC(=O)O)NC(=O)[C@H](CC(C)C)NC(=O)[C@H](Cc4ccc(O)cc4)NC(=O)[C@H](CCCCN)NC(=O)[C@H](CO)NC(=O)[C@H](Cc4ccc(O)cc4)NC(=O)[C@H](CC(=O)O)NC(=O)[C@H](CO)NC(=O)[C@@H](NC(=O)[C@H](Cc4ccccc4)NC(=O)[C@@H](NC(=O)CNC(=O)[C@H](CCC(N)=O)NC(=O)C(C)(C)NC(=O)[C@@H](N)Cc4c[nH]cn4)[C@@H](C)O)[C@@H](C)O)CCC(=O)NCCCC[C@@H](C(=O)N[C@@H](CCC(=O)O)C(=O)N[C@@H](Cc4ccccc4)C(=O)N[C@H](C(=O)N[C@@H](CCC(N)=O)C(=O)N[C@@H](Cc4c[nH]c5ccccc45)C(=O)N[C@@H](CC(C)C)C(=O)N[C@@H](CC(C)C)C(=O)N[C@@H](CCC(N)=O)C(=O)N[C@H](C(N)=O)[C@@H](C)O)[C@@H](C)CC)NC(=O)[C@H](C)NC(=O)[C@H](C)NC3=O)[C@H](O)[C@H](O)[C@H]2O)[C@@H](O)[C@H](O)[C@H]1O [EU-A1588]
Ovalbumin vs. BSA - fold improv/worsen GLP-1 R [3, 8]: 5 fold
Ovalbumin vs. BSA - fold improv/worsen GCG R [4, 8]: 6 fold

Compound: CC[C@H](C)[C@H](NC(=O)[C@H](Cc1ccccc1)NC(=O)[C@H](CCC(=O)O)NC(=O)[C@@H]1CCCCNC(=O)CC[C@H](NC(=O)[C@H](CC(=O)O)NC(=O)[C@H](CC(C)C)NC(=O)[C@H](Cc2ccc(O)cc2)NC(=O)[C@H](CCCCN)NC(=O)[C@H](CO)NC(=O)[C@H](Cc2ccc(O)cc2)NC(=O)[C@H](CC(=O)O)NC(=O)[C@H](CO)NC(=O)[C@@H](NC(=O)[C@H](Cc2ccccc2)NC(=O)[C@@H](NC(=O)CNC(=O)[C@H](CCC(N)=O)NC(=O)C(C)(C)NC(=O)[C@@H](N)Cc2c[nH]cn2)[C@@H](C)O)[C@@H](C)O)C(=O)N[C@@H](CCC(N)=O)C(=O)N[C@@H](C)C(=O)N[C@@H](C)C(=O)N1)C(=O)N[C@@H](CCCCNC(=O)[C@H]1O[C@@H](OCCCCCCCCCCCCCCCC(=O)O)[C@H](O)[C@@H](O)[C@@H]1O)C(=O)N[C@@H](Cc1c[nH]c2ccccc12)C(=O)N[C@@H](CC(C)C)C(=O)N[C@@H](CC(C)C)C(=O)N[C@@H](CCC(N)=O)C(=O)N[C@H](C(N)=O)[C@@H](C)O [EU-A1871]
EC50 ([3]; EC50 cAMP GLP-1 R (pM) 0.1% BSA, Table 5, 0.1% BSA): 162 pM
EC50 ([4]; EC50 cAMP glucagon R (pM) 0.1% BSA, Table 5, 0.1% BSA): 461 pM

The remaining lines, values ahead:

Cmax and PK profiles [2]: optimal
plasma levels compared to liraglutide ([2]; analogue 2 at 4 h, 4 at 2-12 h, 5 at 2, 12, 24 h): Significantly higher plasma levels
Selectivity Ratio GLP-1R vs GCGR [3]: 2
EC50 [3, 6]: 15.8 pM
EC50 [4, 7]: 30.2 pM
Compound: CCCCCCCCCCCCCCO[C@@H]1O[C@H](C(=O)NCCCC[C@H](NC(=O)[C@@H](NC(=O)[C@H](Cc2ccccc2)NC(=O)[C@H](CCC(=O)O)NC(=O)[C@@H]2CCCCNC(=O)CC[C@H](NC(=O)[C@H](CC(=O)O)NC(=O)[C@H](CC(C)C)NC(=O)[C@H](Cc3ccc(O)cc3)NC(=O)[C@H](CCCCN)NC(=O)[C@H](CO)NC(=O)[C@H](Cc3ccc(O)cc3)NC(=O)[C@H](CC(=O)O)NC(=O)[C@H](CO)NC(=O)[C@@H](NC(=O)[C@H](Cc3ccccc3)NC(=O)[C@@H](NC(=O)CNC(=O)[C@H](CCC(N)=O)NC(=O)C(C)(C)NC(=O)[C@@H](N)Cc3c[nH]cn3)[C@@H](C)O)[C@@H](C)O)C(=O)N[C@@H](CCC(N)=O)C(=O)N[C@@H](C)C(=O)N[C@@H](C)C(=O)N2)[C@@H](C)CC)C(=O)N[C@@H](Cc2c[nH]c3ccccc23)C(=O)N[C@@H](CC(C)C)C(=O)N[C@@H](CC(C)C)C(=O)N[C@@H](CCC(N)=O)C(=O)N[C@H](C(N)=O)[C@@H](C)O)[C@@H](O)[C@H](O)[C@H]1O [analogue 4]

Selectivity Ratio GLP-1R vs GCGR [3]: 3
EC50 ([3]; cAMP, CHO cells, 0.1% BSA containing buffers, read-out: EC50 hGLP-1R): 8 pM
EC50 [3, 6]: 8.51 pM
EC50 [4, 7]: 20 pM
Compound: CCCCCCCCO[C@@H]1O[C@H](C(=O)NCCCC[C@H](NC(=O)[C@@H](NC(=O)[C@H](Cc2ccccc2)NC(=O)[C@H](CCC(=O)O)NC(=O)[C@@H]2CCCCNC(=O)CC[C@H](NC(=O)[C@H](CC(=O)O)NC(=O)[C@H](CC(C)C)NC(=O)[C@H](Cc3ccc(O)cc3)NC(=O)[C@H](CCCCN)NC(=O)[C@H](CO)NC(=O)[C@H](Cc3ccc(O)cc3)NC(=O)[C@H](CC(=O)O)NC(=O)[C@H](CO)NC(=O)[C@@H](NC(=O)[C@H](Cc3ccccc3)NC(=O)[C@@H](NC(=O)CNC(=O)[C@H](CCC(N)=O)NC(=O)C(C)(C)NC(=O)[C@@H](N)Cc3c[nH]cn3)[C@@H](C)O)[C@@H](C)O)C(=O)N[C@@H](CCC(N)=O)C(=O)N[C@@H](C)C(=O)N[C@@H](C)C(=O)N2)[C@@H](C)CC)C(=O)N[C@@H](Cc2c[nH]c3ccccc23)C(=O)N[C@@H](CC(C)C)C(=O)N[C@@H](CC(C)C)C(=O)N[C@@H](CCC(N)=O)C(=O)N[C@H](C(N)=O)[C@@H](C)O)[C@@H](O)[C@H](O)[C@H]1O [analogue 1]
